This passage reports LD50 results from patent publication US4877870A, “Process for producing 10-hydroxyanthracyclines” (Kirin Beer Kabushiki Kaisha, priority 1986, dated 1989).

For this data set the following is noted: ICR mice, intravenous injection.

As usually defined, the LD50 is the dose at which mortality reaches 50%. On to `CC[C@@]1(O)C[C@H](O[C@H]2C[C@H](N3CCOCC3)[C@H](O)[C@H](C)O2)c2c(O)c3c(c(O)c2[C@H]1O)C(=O)c1cccc(O)c1C3=O` [M-R20X2, 3'-deamino-3'-(4-morpholinyl)-13-deoxo-10-hydroxycarminomycin], for which the 50% lethal dose (LD50) is listed as 3.55 mg/kg.
